Test results as given in publication PMC11672294, “The Antipsychotic Drug Aripiprazole Suppresses Colorectal Cancer by Targeting LAMP2a to Induce RNH1/miR‐99a/mTOR‐Mediated Autophagy and Apoptosis” (Advanced Science, 2024).
Counter-ions that a name gives are not always drawn. Like-named read-outs stand apart in the source and are kept apart here.

Test system: HT29
Conditions: 72 h, relative to DMSO, 10 µM
How it was run: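 Cells were exposed to drug for 72 h, then to WST-1 for 2 h at 37 °C, and absorbance was read at 450 nm as viability against DMSO treatment. In the screen, each compound was applied at 10 µM.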

Compound	Relative cell viability (%)	Relative cell viability (%) (Relative cell viability (%))
Cc1c(C(=O)Nc2ccc(N3C[C@@H](C)O[C@@H](C)C3)nc2)cccc1-c1ccc(OC(F)(F)F)cc1 [LDE225 (NVP-LDE225,Erismodegib)]	111.4%	–
O=C(O)CSCC(=O)NC1CCSC1=O (stereo not drawn) [Erdosteine]	104.7%	–
CC(CCc1ccccc1)NCC(O)c1ccc(O)c(C(N)=O)c1 (stereo not drawn) [Labetalol HCl]	55.76%	–
OC(CCCN1CCCCC1)(c1ccccc1)c1ccccc1 [Diphenidol HCl]	59.39%	–
COc1cc2c(cc1OC)CC(=O)N(CCCN(C)C[C@H]1Cc3cc(OC)c(OC)cc31)CC2 [Ivabradine HCl]	110.8%	–
NC(=O)c1cn(Cc2c(F)cccc2F)nn1 [Rufinamide]	91.43%	–
CCC[S+]([O-])c1ccc2[nH]c(NC(=O)OC)nc2c1 (stereo not drawn) [Albendazole Oxide]	65.25%	–
CN(C(=O)c1ccc(F)cc1C(F)(F)F)C1CCN(c2nnc(-c3ccnn3C)c3ccccc23)CC1 [Taladegib (LY2940680)]	105.5%	–
CN(C)CCCN1c2ccccc2Sc2ccc(Cl)cc21 [Chlorpromazine HCl]	93.71%	–
NC(=O)CN1CC(O)CC1=O (stereo not drawn) [Oxiracetam]	54.85%	–
C[C@H](CCC(=O)O)[C@H]1CC[C@H]2[C@@H]3[C@H](O)C[C@@H]4C[C@H](O)CC[C@]4(C)[C@H]3CC[C@]12C [Chenodeoxycholic Acid]	60.17%	–
NC(=O)N1CCC(CC(=O)N2CCC([C@H]3c4ncc(Br)cc4CCc4cc(Cl)cc(Br)c43)CC2)CC1 [Lonafarnib]	95.63%	–
Nc1c(Br)cc(Br)cc1CN[C@H]1CC[C@H](O)CC1 [Ambroxol HCl]	67.96%	–
O=C[C@H](O)[C@@H](O)[C@H](O)CO [Xylose]	114.9%	–
C[C@@H]1CCN(C(=O)CC#N)C[C@@H]1N(C)c1ncnc2[nH]ccc12 [Tofacitinib (CP-690550,Tasocitinib)]	–	51.94%
CCOC(=O)c1c(C)n(C)c2ccc(O)cc12 [Mecarbinate]	130.3%	–
Nc1ccc(S(=O)(=O)Nc2ncccn2)cc1 [Sulfadiazine]	85.59%	–
N#Cc1ccc(C(c2ccc(C#N)cc2)n2cncn2)cc1 [Letrozole]	82.09%	–
CC(=O)OCC(=O)[C@H]1CC[C@H]2[C@@H]3CCC4=CC(=O)CC[C@]4(C)[C@H]3CC[C@]12C [Deoxycorticosterone acetate]	81.21%	–
CN1CCN(c2nc(C3=C(c4c[nH]c5ccccc45)C(=O)NC3=O)c3ccccc3n2)CC1 [Sotrastaurin]	49.03%	–
Nc1nc(N)nc(NC2CC2)n1 [Cyromazine]	68.48%	–
CC(C)[C@H](N)C(=O)OCCOCn1cnc2c(=O)[nH]c(N)nc21 [Valaciclovir HCl]	85.59%	–
CC1=CC(=O)c2ccccc2C1=O [Menadione]	15.16%	–
CC(=O)Oc1cc2c(s1)CCN(C(C(=O)C1CC1)c1ccccc1F)C2 (stereo not drawn) [Prasugrel]	68.07%	–

Compound	Relative cell viability (%)	Relative cell viability (%) (Relative cell viability (%))
CC#CCn1c(N2CCC[C@@H](N)C2)nc2c1c(=O)n(Cc1nc(C)c3ccccc3n1)c(=O)n2C [Linagliptin]	66.5%	–
CCN(CCCc1ccccc1)CCCc1ccccc1 [Alverine Citrate]	78.16%	–
COc1ccc(C[C@@H]2c3cc(OC)c(OC)cc3CC[N@+]2(C)CCC(=O)OCCCCCOC(=O)CC[N@@+]2(C)CCc3cc(OC)c(OC)cc3[C@H]2Cc2ccc(OC)c(OC)c2)cc1OC [Cisatracurium Besylate]	–	127.3%
CCOc1nc2cccc(C(=O)OC(C)OC(=O)OC3CCCCC3)c2n1Cc1ccc(-c2ccccc2-c2nnn[nH]2)cc1 (stereo not drawn) [Candesartan Cilexetil]	195.6%	–
CC1(C)[C@H](C(=O)O)N2C(=O)C[C@H]2S1(=O)=O [Sulbactam]	199.5%	–
O=c1oc2cc(O)ccc2s1 [Tioxolone]	114.6%	–
OC[C@H]1O[C@@H](c2ccc(Cl)c(Cc3ccc(O[C@H]4CCOC4)cc3)c2)[C@H](O)[C@@H](O)[C@@H]1O [Empagliflozin (BI 10773)]	75.21%	–
CN(C)/N=N/c1[nH]cnc1C(N)=O [Dacarbazine]	91.43%	–
FC(F)(F)c1ccc(CNc2ccc(Cc3c[nH]c4ncc(Cl)cc34)cn2)cn1 [Pexidartinib (PLX3397)]	54.7%	–
COc1ccc2nc([S@@+]([O-])Cc3ncc(C)c(OC)c3C)[nH]c2c1 [Esomeprazole Magnesium]	–	80.51%
CCn1cc(C(=O)O)c(=O)c2cc(F)c(N3CCNCC3)nc21 [Enoxacin]	74.15%	–
COc1ccc(-c2ccc3cc(C(=O)O)ccc3c2)cc1[C@]12C[C@H]3C[C@H](C[C@H](C3)C1)C2 [Adapalene]	16.67%	–
Cn1cnc2c(F)c(Nc3ccc(Br)cc3F)c(C(=O)NOCCO)cc21 [MEK162 (ARRY-162, ARRY-438162)]	36.75%	–
C[C@]12CC[C@H](O)CC1=CC[C@@H]1[C@@H]2CC[C@]2(C)C(n3cnc4ccccc43)=CC[C@@H]12 [Galeterone]	25.73%	–
COC(=O)C1=CCCN(C)C1 [Arecoline]	59.22%	–
Cn1ncc(Cl)c1-c1cc(C(=O)N[C@H](CN)Cc2cccc(F)c2)sc1Cl [Afuresertib (GSK2110183)]	13.68%	–
CCCCNc1cc(C(=O)O)cc(S(N)(=O)=O)c1Oc1ccccc1 [Bumetanide]	61.84%	–
COC1=C(OC)C(=O)C(CCCCCCCCCCO)=C(C)C1=O [Idebenone]	41.75%	–
C#Cc1cccc(Nc2ncnc3cc(OCCOC)c(OCCOC)cc23)c1 [Erlotinib]	79.06%	–
O=C1CC[C@@]2(O)[C@H]3Cc4ccc(O)c5c4[C@@]2(CCN3CC2CC2)[C@H]1O5 [Naltrexone HCl]	104.3%	–
C[C@]12C=CC(=O)C=C1CC[C@@H]1[C@@H]2[C@@H](O)C[C@@]2(C)[C@H]1CC[C@]2(O)C(=O)CO [Prednisolone]	56.36%	–
Clc1ccc(C(Cn2ccnc2)OCc2ccc(Sc3ccccc3)cc2)c(Cl)c1 (stereo not drawn) [Fenticonazole Nitrate]	58.4%	–
CCCCCCCCCCCCCCCC[n+]1ccccc1 [Cetylpyridinium Chloride]	5.758%	–
Cc1cc(O)ccc1Cl [Chlorocresol]	65.76%	–

Compound	Relative cell viability (%)	Relative cell viability (%) (Relative cell viability (%))
C[C@H]1O[C@@H](O[C@H]2[C@@H](O)C[C@H](O[C@H]3[C@@H](O)C[C@H](O[C@H]4CC[C@@]5(C)[C@H](CC[C@@H]6[C@@H]5C[C@@H](O)[C@]5(C)[C@@H](C7=CC(=O)OC7)CC[C@]65O)C4)O[C@@H]3C)O[C@@H]2C)C[C@H](O)[C@@H]1O [Digoxin]	5.758%	–
Cc1nnc(C(=O)NC(C)(C)c2nc(C(=O)NCc3ccc(F)cc3)c(O)c(=O)n2C)o1 [Raltegravir (MK-0518)]	181.8%	–
COC(=O)C1=C(C)NC(C)=C(C(=O)OCCN(C)Cc2ccccc2)C1c1cccc([N+](=O)[O-])c1 (stereo not drawn) [Nicardipine HCl]	83.03%	–
CN(C)[C@@H](CCOc1cccc2ccccc12)c1ccccc1 [Dapoxetine HCl]	44.92%	–
NNC(=O)c1ccncc1 [Isoniazid]	140.3%	–
Cc1nc(NC(=O)N2CCC[C@H]2C(N)=O)sc1-c1ccnc(C(C)(C)C(F)(F)F)c1 [BYL719]	50.49%	–
CCCc1cc(C(N)=S)ccn1 [Protionamide]	123.7%	–
CNC(=O)[C@H](Cc1c[nH]c2ccccc12)NC(=O)[C@@H](CC(=O)NO)CC(C)C [Ilomastat (GM6001, Galardin)]	95.73%	–
CN1CCC[C@@H]1CCO[C@](C)(c1ccccc1)c1ccc(Cl)cc1 [Clemastine Fumarate]	16.95%	–
Nc1ncn([C@@H]2O[C@H](CO)[C@@H](O)[C@H]2O)c(=O)n1 [Azacitidine]	56.36%	–
Cc1ccnc2c1NC(=O)c1cccnc1N2C1CC1 [Nevirapine]	94.49%	–
Nc1cc(C(Cl)=C(Cl)Cl)c(S(N)(=O)=O)cc1S(N)(=O)=O [Clorsulon]	49.03%	–
O=C1CCc2ccc(OCCCCN3CCN(c4cccc(Cl)c4Cl)CC3)cc2N1 [aripiprazole]	49.03%	–
CN(C)C/C=C/C(=O)Nc1cc2c(Nc3ccc(F)c(Cl)c3)ncnc2cc1O[C@H]1CCOC1 [Afatinib (BIBW2992) Dimaleate]	20.09%	–
CC/C(=C(\c1ccccc1)c1ccc(OCCN(C)C)cc1)c1ccccc1 [Tamoxifen]	–	18.22%
O=S(=O)(O)CCS [Mesna]	56.36%	–
COC(c1ccccc1)(c1ccccc1)[C@H](Oc1nc(C)cc(C)n1)C(=O)O [Ambrisentan]	132.6%	–
COc1nc(C)nc(Cl)c1N=C1NCCN1 [Moxonidine]	116.7%	–
COc1cc2ncnc(Nc3ccc(F)c(Cl)c3)c2cc1NC(=O)/C=C/CN1CCCCC1 [Dacomitinib (PF299804, PF299)]	11.17%	–
CC(C(=O)O)c1ccc(C(=O)c2cccs2)cc1 (stereo not drawn) [Suprofen]	93.22%	–
COc1ccc(C[C@@H](C)NC[C@H](O)c2ccc(O)c(NC=O)c2)cc1 (racemic) [Formoterol Hemifumarate]	95.63%	–
C[C@@H](O[C@H]1OCCN(Cc2nc(O)n(P(=O)(O)O)n2)[C@H]1c1ccc(F)cc1)c1cc(C(F)(F)F)cc(C(F)(F)F)c1 [Fosaprepitant dimeglumine salt]	111.6%	–
CCS(=O)(=O)N1CCN(c2ccc(Nc3ncc(C(N)=O)c(NC4CC4)n3)cc2)CC1 [Cerdulatinib (PRT062070, PRT2070)]	36.75%	–
N#C[C@@H]1CCCN1C(=O)CNC12CC3CC(CC(O)(C3)C1)C2 [Vildagliptin (LAF-237)]	108.7%	–
